Results taken from patent US9718828B2 (MERCK SHARP & DOHME CORP., priority 2011, dated 2017).

molecular target: Btk enzyme (His-Btk) (Homo sapiens (Human), UniProt Q06187); assay: Btk enzyme activity, IMAP fluorescence polarization assay (Assay Method A); conditions: not given
Sequence (Q06187 whole entry): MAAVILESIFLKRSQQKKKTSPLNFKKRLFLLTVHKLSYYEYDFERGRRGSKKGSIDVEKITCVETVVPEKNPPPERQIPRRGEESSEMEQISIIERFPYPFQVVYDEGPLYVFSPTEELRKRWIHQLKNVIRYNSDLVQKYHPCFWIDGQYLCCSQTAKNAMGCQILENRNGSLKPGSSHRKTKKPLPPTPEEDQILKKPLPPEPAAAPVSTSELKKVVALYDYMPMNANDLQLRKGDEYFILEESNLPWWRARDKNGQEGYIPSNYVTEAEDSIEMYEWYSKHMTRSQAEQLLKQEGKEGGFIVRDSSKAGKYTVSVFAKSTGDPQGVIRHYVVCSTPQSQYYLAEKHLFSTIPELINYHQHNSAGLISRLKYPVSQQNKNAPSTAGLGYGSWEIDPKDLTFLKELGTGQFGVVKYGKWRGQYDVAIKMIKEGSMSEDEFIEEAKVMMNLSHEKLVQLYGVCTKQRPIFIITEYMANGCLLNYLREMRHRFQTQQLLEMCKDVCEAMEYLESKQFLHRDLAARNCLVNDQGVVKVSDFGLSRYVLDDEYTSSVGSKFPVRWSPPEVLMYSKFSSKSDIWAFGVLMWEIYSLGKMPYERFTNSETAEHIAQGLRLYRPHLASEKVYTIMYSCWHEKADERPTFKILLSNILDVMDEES

Compound	EC50
CC(C)CNC(=O)C(=O)N1CCC[C@@H](c2nc(-c3ccc(C(=O)Nc4cc(C5CC5)ccn4)cc3)c3c(N)nccn23)C1 [Example 112, (R)-4-(8-amino-3-(1-(2-(isobutylamino)-2-oxoacetyl)piperidin-3-yl)imidazo[1,5-a]pyrazin-1-yl)-N-(4-cyclopropylpyridin-2-yl)benzamide]	10 to 100 nM
Cc1ccc(NC(=O)C(=O)N2CCC[C@@H](c3nc(-c4ccc(C(=O)Nc5cc(C6CC6)ccn5)cc4)c4c(N)nccn34)C2)cc1C [Example 113, (R)-4-(8-amino-3-(1-(2-(3,4-dimethylphenylamino)-2-oxoacetyl)piperidin-3 yl)imidazo[1,5-a]pyrazin-1-yl)-N-(4-cyclopropylpyridin-2-yl)benzamide]	10 to 100 nM
Nc1nccn2c([C@@H]3CCCN(C(=O)C(=O)C(F)(F)F)C3)nc(-c3ccc(C(=O)Nc4cc(C5CC5)ccn4)cc3)c12 [Example 115, (R)-4-(8-amino-3-(1-(3,3,3-trifluoro-2-oxopropanoyl)piperidin-3-yl)imidazo[1,5-a]pyrazin-1-yl)-N-(4-cyclopropylpyridin-2-yl)benzamide]	100 to 1000 nM
Nc1nccn2c([C@@H]3CCCN(C(=O)NC45CC6CC(CC(C6)C4)C5)C3)nc(-c3ccc(C(=O)Nc4cc(C5CC5)ccn4)cc3)c12 [Example 121]	10 to 100 nM
Nc1nccn2c([C@@H]3CCCN(C(=O)C(=O)c4ccco4)C3)nc(-c3ccc(C(=O)Nc4cc(C5CC5)ccn4)cc3)c12 [Example 123, (R)-4-(8-amino-3-(1-(2-(furan-2-yl)-2-oxoacetyl)piperidin-3-yl)imidazo[1,5-a]pyrazin-1-yl)-N-(4-cyclopropylpyridin-2-yl)benzamide]	10 to 100 nM
CN(C)CCCC(=O)N1CC[C@@H](c2nc(-c3ccc(C(=O)Nc4ccccn4)cc3)c3c(N)nccn23)C1 [Example 124, (R)-4-(8-amino-3-(1-(4-(dimethylamino)butanoyl)pyrrolidin-3-yl)imidazo[1,5-a]pyrazin-1-yl)-N-(pyridin-2-yl)benzamide]	100 to 1000 nM

same assay, conditions: read-out: EC50 Btk activity values - Assay Method A; IMAP-FP, 60 min pre-incubation, 5 μM ATP; class 100-1000 is given as ≧100 nM-<1 μM

Compound	EC50
CCC(=O)C(=O)N1CCC[C@@H](c2nc(-c3ccc(C(=O)Nc4cc(C5CC5)ccn4)cc3)c3c(N)nccn23)C1 [Example 114, (R)-4-(8-amino-3-(1-(2-oxobutanoyl)piperidin-3 yl)imidazo[1,5-a]pyrazin-1-yl)-N-(4-cyclopropylpyridin-2-yl)benzamide]	< 10 nM
Cc1nnc(C(=O)N2CCC[C@@H](c3nc(-c4ccc(C(=O)Nc5cc(C6CC6)ccn5)cc4)c4c(N)nccn34)C2)o1 [Example 116, (R)-4-(8-amino-3-(1-(5-methyl-1,3,4-oxadiazole-2-carbonyl)piperidin-3-yl)imidazo[1,5-a]pyrazin-1-yl)-N-(4-cyclopropylpyridin-2-yl)benzamide]	< 10 nM
N#Cc1ccc(C(=O)N2CCC[C@@H](c3nc(-c4ccc(C(=O)Nc5cc(C6CC6)ccn5)cc4)c4c(N)nccn34)C2)cn1 [Example 117, (R)-4-(8-amino-3-(1-(6-cyanonicotinoyl)piperidin-3-yl)imidazo[1,5-a]pyrazin-1-yl)-N-(4-cyclopropylpyridin-2-yl)benzamide .]	< 10 nM
N#Cc1csc(C(=O)N2CCC[C@@H](c3nc(-c4ccc(C(=O)Nc5cc(C6CC6)ccn5)cc4)c4c(N)nccn34)C2)c1 [Example 118, (R)-4-(8-amino-3-(1-(4-cyanothiophene-2-carbonyl)piperidin-3 yl)imidazo[1,5-a]pyrazin-1-yl)-N-(4-cyclopropylpyridin-2-yl)benzamide]	< 10 nM
Nc1nccn2c([C@@H]3CCCN(C(=O)Nc4ccccc4Cl)C3)nc(-c3ccc(C(=O)Nc4cc(C5CC5)ccn4)cc3)c12 [Example 120, (R)-3-(8-amino-1-(4-(4-cyclopropylpyridin-2-ylcarbamoyl)phenyl)imidazo [1,5-a]pyrazin-3-yl)-N-(2-chlorophenyl)piperidine-1-carboxamide]	< 10 nM
